Laboratory results taken from ChEMBL document CHEMBL5257109, “Development of actein derivatives as potent anti-triple negative breast cancer agents” (Bioorg Med Chem Lett, 2023).
pIC50: −log10 of the molar value. The source made the active and inactive calls. The rule behind the calls is not given here.

What was measured:
[1] = system: HCC1806; experiment: Antiproliferative activity against human HCC1806 cells assessed as inhibition of cell growth at 20 uM incubated for 36 hrs by SRB assay relative to control; assay type: functional
[2] = system: HCC1806; experiment: Antiproliferative activity against human HCC1806 cells assessed as inhibition of cell growth incubated for 36 hrs by SRB assay; assay type: functional, cell-based; settings: HCC1806, 36 h
[3] = system: MDA-MB-231; experiment: Antiproliferative activity against human MDA-MB-231 cells assessed as inhibition of cell growth at 20 uM incubated for 36 hrs by SRB assay relative to control; assay type: functional
[4] = system: MDA-MB-231; experiment: Antiproliferative activity against human MDA-MB-231 cells assessed as inhibition of cell growth incubated for 36 hrs by SRB assay; assay type: functional, cell-based; settings: MDA-MB-231, 36 h
[5] = system: MDA-MB-231; experiment: Antiproliferative activity against human MDA-MB-231 cells overexpressing ERnegative and […] assessed as inhibition of cell growth incubated for 96 hrs by coulter counter analysis; assay type: functional, cell-based; settings: MDA-MB-231, 96 h
[6] = system: MDA-MB-231; experiment: Antiproliferative activity against human MDA-MB-231 cells assessed as inhibition of cell growth; assay type: functional, cell-based
[7] = system: MCF7; experiment: Antiproliferative activity against human MCF7 cells assessed as inhibition of cell growth incubated for 96 hrs by coulter counter analysis; assay type: functional, cell-based; settings: MCF7, 96 h
[8] = system: HCC1806; experiment: Induction of cell death in human HCC1806 cells assessed as activation of p38 protein incubated for 36 hrs by Western blot analysis; assay type: functional, cell-based; settings: dose 10-20 µM
[9] = system: HCC1806; experiment: Induction of cell cycle arrest in human HCC1806 cells assessed as decrease in G2/M phase cells at 10 uM incubated for 36 hrs by PI staining based flow cytometric analysis; assay type: functional
[10] = system: HCC1806; experiment: Induction of cell cycle arrest in human HCC1806 cells assessed as increase in S phase cells at 10 uM incubated for 36 hrs by PI staining based flow cytometric analysis; assay type: functional
[11] = system: HCC1806; experiment: Induction of cell death in human HCC1806 cells assessed as increase in p21 expression incubated for 36 hrs by Western blot analysis; assay type: functional, cell-based; settings: dose 10-20 µM

With `CC(=O)O[C@@H]1[C@@H](OC(C)=O)[C@H](O[C@H]2CC[C@]34C[C@]35CC(=O)[C@]3(C)[C@H]6[C@H](C)C[C@]7(OC(O)[C@@]8(C)O[C@@H]78)O[C@H]6C[C@@]3(C)[C@@H]5CC[C@H]4C2(C)C)OC[C@H]1OC(C)=O` (stereo not given in full) the inhibition at 20 µM [1] was > 50%, the pIC50 [2] was 5.06 and the inhibition at 20 µM [3] was > 50%. For the same compound, the pIC50 [4] was 4.89.

For `CC(=O)O[C@@H]1[C@@H](OC(C)=O)[C@H](O[C@H]2CC[C@]34C[C@]35CC(=O)[C@]3(C)[C@H]6[C@H](C)C[C@]7(O[C@@H](OC(=O)CCC(=O)O)[C@@]8(C)O[C@@H]78)O[C@H]6C[C@@]3(C)[C@@H]5CC[C@H]4C2(C)C)OC[C@H]1OC(C)=O`, the inhibition at 20 µM [1] was > 50%, the pIC50 [2] was 4.97 and the inhibition at 20 µM [3] was > 50%. It also gave a pIC50 [4] of 4.92.

`CC(=O)O[C@@H]1C[C@@]23C[C@@]24CC[C@H](O[C@@H]2OC[C@@H](O)[C@H](O)[C@H]2O)C(C)(C)[C@@H]4CC[C@H]3[C@]2(C)C[C@@H]3O[C@]4(C[C@@H](C)[C@@H]3[C@@]12C)O[C@H](O)[C@@]1(C)O[C@@H]41` [ACTEIN] was tested, and the pIC50 [5] was 4.13, the pIC50 [6] was 4.22 and the pIC50 [2] was < 4.70. For the same compound, the pIC50 [7] was 4.85 and the pIC50 [4] was < 4.70.

With `CC(=O)O[C@@H]1[C@@H](OC(C)=O)[C@H](O[C@H]2CC[C@]34C[C@]35C=C[C@]3(C)[C@H]6[C@H](C)C[C@]7(OC(=O)[C@@]8(C)O[C@@H]78)O[C@H]6C[C@@]3(C)[C@@H]5CC[C@H]4C2(C)C)OC[C@H]1OC(C)=O` the inhibition at 20 µM [1] was > 50%, the pIC50 [2] was 4.87 and the inhibition at 20 µM [3] was > 50%. For the same compound, the pIC50 [4] was < 4.70.

`CC(=O)O[C@@H]1[C@@H](OC(C)=O)[C@H](O[C@H]2CC[C@]34C[C@]35C[C@@H](OC(C)=O)[C@]3(C)[C@H]6[C@H](C)C[C@]7(OC(O)[C@@]8(C)O[C@@H]78)O[C@H]6C[C@@]3(C)[C@@H]5CC[C@H]4C2(C)C)OC[C@H]1OC(C)=O` (stereo not given in full) was tested, and the inhibition at 20 µM [1] was > 50%, the pIC50 [2] was 5.47 and the inhibition at 20 µM [3] was > 50%. The pIC50 [4] was < 4.70.

With `CC(=O)OC1O[C@]2(C[C@@H](C)[C@H]3[C@H](C[C@@]4(C)[C@@H]5CC[C@H]6C(C)(C)[C@@H](O[C@@H]7OC[C@@H](OC(C)=O)[C@H](OC(C)=O)[C@H]7OC(C)=O)CC[C@@]67C[C@@]57C[C@@H](OC(C)=O)[C@]34C)O2)[C@@H]2O[C@]12C` (stereo not given in full) the inhibition at 20 µM [1] was > 50%, the pIC50 [2] was 5.09 and the inhibition at 20 µM [3] was > 50%. The pIC50 [4] was < 4.70.

In the case of `CC(=O)O[C@@H]1[C@@H](OC(C)=O)[C@H](O[C@H]2CC[C@]34C[C@]35C[C@@H](OC(C)=O)[C@]3(C)[C@H]6[C@H](C)C[C@]7(O[C@@H](OC(=O)CCC(=O)O)[C@@]8(C)O[C@@H]78)O[C@H]6C[C@@]3(C)[C@@H]5CC[C@H]4C2(C)C)OC[C@H]1OC(C)=O`, the Activity [8] was “Dose-Dependent Effect”, the inhibition at 20 µM [1] was > 50% and the Activity [9] was “Active”. For the same compound, the Activity [10] was “Active”, the pIC50 [2] was 5.56 and the inhibition at 20 µM [3] was > 50%. The Activity [11] was “Dose-Dependent Effect” and the pIC50 [4] was 5.04.

In the case of `C[C@@H]1C[C@]2(OC(=O)[C@@]3(C)O[C@@H]23)O[C@H]2C[C@@]3(C)[C@@H]4CC[C@H]5C(C)(C)[C@@H](O[C@@H]6OC[C@@H](O)[C@H](O)[C@H]6O)CC[C@@]56C[C@@]46C=C[C@]3(C)[C@@H]12`, the pIC50 [2] was < 4.70 and the pIC50 [4] was < 4.70.
